According to ChEMBL document CHEMBL1124647, “Conformational analysis and molecular modeling of 1-phenyl-, 4-phenyl-, and 1-benzyl-1,2,3,4-tetrahydroisoquinolines as D1 dopamine receptor ligands” (J Med Chem, 1989):

Tests used:
D(1A) dopamine receptor = D(1A) dopamine receptor (Homo sapiens, UniProt P21728); assay: Binding potency of compound for Dopamine receptor D1 by displacing [3H]SCH-23390 radioligand
D(2) dopamine receptor = D(2) dopamine receptor (Homo sapiens, UniProt P14416); assay: Binding potency of compound for Dopamine receptor D2 by displacement of [3H]spiperone
Chain of D(2) dopamine receptor (P14416 whole entry): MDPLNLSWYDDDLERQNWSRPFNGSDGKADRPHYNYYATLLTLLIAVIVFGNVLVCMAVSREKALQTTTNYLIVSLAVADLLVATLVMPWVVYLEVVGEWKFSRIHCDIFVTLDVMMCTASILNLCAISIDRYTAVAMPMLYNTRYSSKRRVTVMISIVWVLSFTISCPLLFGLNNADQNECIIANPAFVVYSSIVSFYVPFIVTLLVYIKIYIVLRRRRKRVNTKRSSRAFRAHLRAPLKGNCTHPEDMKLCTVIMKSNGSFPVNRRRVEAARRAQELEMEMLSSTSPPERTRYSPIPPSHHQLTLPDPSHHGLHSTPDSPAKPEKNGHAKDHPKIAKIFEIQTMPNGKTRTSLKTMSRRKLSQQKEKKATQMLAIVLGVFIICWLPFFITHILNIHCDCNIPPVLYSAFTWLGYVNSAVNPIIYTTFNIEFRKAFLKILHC

[1] = DSAC inhibitory potency obtained by the conversion of [32P]-ATP to [32P]-cAMP

Chain of D(1A) dopamine receptor (P21728 whole entry): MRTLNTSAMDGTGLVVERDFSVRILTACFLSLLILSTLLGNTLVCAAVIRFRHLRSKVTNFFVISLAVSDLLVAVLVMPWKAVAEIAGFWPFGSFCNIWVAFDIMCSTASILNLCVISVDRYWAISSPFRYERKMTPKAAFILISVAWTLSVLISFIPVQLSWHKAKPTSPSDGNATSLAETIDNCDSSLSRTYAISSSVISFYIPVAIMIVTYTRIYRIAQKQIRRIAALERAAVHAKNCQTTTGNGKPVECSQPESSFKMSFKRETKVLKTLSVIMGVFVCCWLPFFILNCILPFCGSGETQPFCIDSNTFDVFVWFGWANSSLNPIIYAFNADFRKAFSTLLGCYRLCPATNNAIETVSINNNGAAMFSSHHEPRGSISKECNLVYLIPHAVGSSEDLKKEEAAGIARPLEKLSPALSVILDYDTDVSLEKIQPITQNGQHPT

Row | SMILES | Ki (D(1A) dopamine receptor) [nM] | Ki (D(2) dopamine receptor) [nM] | Log Ki [1]
1 | Oc1cc2c(cc1Cl)CCN[C@H]2c1ccccc1 | 141 | 3720 | -6.96
2 | CCCN1CCc2cc(Cl)c(O)cc2[C@@H]1c1ccccc1 | 178 | 1910 | -6.69
3 | CN1CCc2cc(Cl)c(O)cc2[C@H]1c1ccccc1 | 447 | 19100 | -6.25
4 | CN1CCc2cc(Cl)c(O)cc2[C@@H]1c1ccccc1 | 6.61 | 1860 | -8.18
5 | Oc1cc2c(cc1Cl)CNC[C@H]2c1ccccc1 | 282 | 1820 | -6.2
6 | CN1CCc2cc(Cl)c(O)cc2[C@@H]1Cc1ccccc1 | 26.9 | 145 | -8.2
7 | CN1CCc2cc(Cl)c(O)cc2[C@@H](c2ccccc2)C1 [SCH-23390] | – | – | -9.33
8 | CN1Cc2cc(Cl)c(O)cc2[C@H](c2ccccc2)C1 | 87.1 | 263 | -6.99
